Reference: patent US20180028667A1, “AQUEOUS LIQUID AGENT” (SENJU PHARMACEUTICAL CO., LTD., priority 2014, published 2018)

Experiment: Measurement of solubility of compound A in various solvents (oil components)
Type: physicochemical
Conditions: 25° C., stirred 24 hr
Experimental: An excess amount (about 0.2 g) of compound A was added to various solvents (10 g) described in Table 7, and the mixture was stirred at 25° C. for 24 hr. Thereafter, the solvent was filtered off through a 0.45 μm non-aqueous filter while maintaining the temperature. The content of compound A contained in the filtrate was measured in the same manner as in Experimental Example 1, and the solubility of compound A in various solvents was calculated.

solubility (solvent castor oil): 0.311% | solubility (solvent corn oil): 0.008% | solubility (solvent cottonseed oil): 0.008% | solubility (solvent olive oil): 0.009% | solubility (solvent rape seed oil): 0.007% | solubility (solvent soybean oil): 0.007%
SMILES: Cc1cc(C(=O)Nc2cc(Oc3ccc4nc(NC(=O)C5CC5)cn4n3)ccc2C)n(C)n1 [compound A, N-[5-({2-[(cyclopropylcarbonyl)amino]imidazo[1,2-b]pyridazin-6-yl}oxy)-2-methylphenyl]-1,3-dimethyl-1H-pyrazole-5-carboxamide]
